Laboratory results reported in patent publication US12364702B2, “Highly active sting protein agonist compound” (ADLAI NORTYE BIOPHARMA CO., LTD., priority 2018, dated 2025).
Read-outs that look alike come from different tables or passages of the source.

Columns and labels:
Assay type in all cases: cell-based
[1] = biological target: STING (Homo sapiens, UniProt Q86WV6); assay: IFN-β secretion from THP1 by STING activation (hIFNβ ELISA)
In short: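 THP1 cells (2×10^6 cells/ml) exposed 24 h at 37° C, 5% CO2 to 8-point, 3-fold compound dilutions, 0.2% DMSO final, top dose set by solubility. Secreted IFN-β in supernatant measured by human IFNβ ELISA; EC50 from curve fitting.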

[2] = biological target: T1, STING HAQ variant (Homo sapiens, UniProt Q86WV6, G230A/R293Q/R71H); assay: SEAP reporter assay in HEK-Blue ISG KO-STING cells transfected with STING HAQ variant (Method 2); parameters: key: ratio of compound SEAP signal to 0.5% DMSO; details: 0.0625 ng STING vector (HAQ variant), compound 5 uM, 24 h, SEAP signal vs 0.5% DMSO
T1 construct: host or cells: HEK-Blue ISG KO-STING cells (Invivogen, hkb-kostg)
T1 sequence (Q86WV6 whole entry R71H/G230A/R293Q): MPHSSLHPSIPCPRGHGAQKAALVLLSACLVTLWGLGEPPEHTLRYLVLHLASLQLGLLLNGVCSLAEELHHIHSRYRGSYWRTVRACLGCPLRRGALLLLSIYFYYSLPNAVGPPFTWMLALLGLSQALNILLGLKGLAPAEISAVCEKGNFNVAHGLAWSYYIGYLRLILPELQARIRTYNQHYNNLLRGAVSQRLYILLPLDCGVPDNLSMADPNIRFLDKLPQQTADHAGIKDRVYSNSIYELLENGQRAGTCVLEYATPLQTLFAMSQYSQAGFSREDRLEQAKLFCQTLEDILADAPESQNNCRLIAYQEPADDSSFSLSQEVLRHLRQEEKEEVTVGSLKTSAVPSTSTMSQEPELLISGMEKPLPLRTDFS
Text: (§1) Activation of STING can be determined using a SEAP reporter assay in HEK-Blue™ ISG KO-STING cells (Invivogen, cat #hkb-kostg) transfected with plasmids expressing STING variants (WT & HAQ) (referred to WO2017/175147A1). STING variants (WT & HAQ) vector were constructed based on STING-232H vector (Origene, RC208418). GFP vector (VT2069) was bought from Youbio. The detailed protocol as follows: HEK-Blue™ ISG KO-STING cells were harvest and seeding into 96 well plate and the final cell number was 0.8×10^5 cells/well. Transfections were prepared using Lipofectamine 2000 (Invitrogen, Cat #11668-027) following the manufacturer's instructions (Lipo2000/DNA=1/10), 20 ul of transfection suspension containing 1 ng (WT variant) or 0.0625 ng (HAQ variant) STING vector was added to cell culture plate and incubated at 37° C., 5% CO2 for 24 hours. After 24 hours incubation, compounds were added at proper concentration, the final DMSO concentration was 0.5%. After 24 h incubation, the supernatant was collected to detect SEAP signal using Great EscAPe SEAP chemiluminescence KIT (Clontech, cat #631738) and cells were collected to detect cell viability using CellTiter-Glo Luminescent Cell Viability Assay (Promega, cat #G7573) following the manufacturer's instructions. The data were described by the ratio of the stimulating signal of compounds to 0.5% DMSO.

[3] = biological target: T2, STING WT variant (Homo sapiens, UniProt Q86WV6); assay: SEAP reporter assay in HEK-Blue ISG KO-STING cells transfected with STING WT variant (Method 2); parameters: key: ratio of compound SEAP signal to 0.5% DMSO; details: 1 ng STING vector (WT variant), compound 2.5 uM, 24 h, SEAP signal vs 0.5% DMSO
T2 construct: host or cells: HEK-Blue ISG KO-STING cells (Invivogen, hkb-kostg)
Text: as §1

[4] = THP1 cells; 24 h incubation; IFN-β in supernatant; top dose set according to solubility; read-out: hIFNβ ELISA (EC50)
[5] = THP1 cells; 24 h incubation; IFN-β in supernatant; top dose set according to solubility

Chain of STING (Q86WV6 whole entry): as the sequence (Q86WV6 whole entry R71H/G230A/R293Q) above, with H71R, A230G, Q293R counted along it

| Structure (SMILES) | EC50 [1, 4] | Fold change related to DMSO control HAQ [2] | Fold change related to DMSO control WT [3] | hIFNβ ELISA (EC50, μM) [1, 5] | EC50 ([1]; read-out: hIFNβ ELISA (EC50); THP1 cells; 24 h incubation; IFN-β in supernatant; top dose set according to solubility) |
| --- | --- | --- | --- | --- | --- |
| CCn1nc(C)cc1C(=O)Nc1nc2cc(C(N)=O)cc(OCCCNC(=O)CN3CC(OC)C3)c2n1CCC[C@H]1COc2cc(C(N)=O)cc3nc(NC(=O)c4cc(C)nn4CC)n1c23 [Example 43, (S)-3-(3-(5-carbamoyl-2-(1-ethyl-3-methyl-1H-pyrazole-5-carboxamido)-7-(3-(2-(3-methoxyazetidin-1-yl)acetamido)propoxy)-1H-benzo[d]imidazol-1-yl)propyl)-2-(1-ethyl-3-methyl-1H-pyrazole-5-carboxamido)-3,4-dihydro-5-oxa-1,2a-diazaacenaphthylene-7-carboxamide] | 4.6 µM | 19.89 | 7.12 |  |  |
| CCn1nc(C)cc1C(=O)Nc1nc2cc(C(N)=O)cc(OCCCNS(=O)(=O)CCN)c2n1CCC[C@H]1COc2cc(C(N)=O)cc3nc(NC(=O)c4cc(C)nn4CC)n1c23 [Example 44, (S)-3-(3-(7-(3-(2-aminoethylsulfonamido)propoxy)-5-carbamoyl-2-(1-ethyl-3-methyl-1H-pyrazole-5-carboxamido)-1H-benzo[d]imidazol-1-yl)propyl)-2-(1-ethyl-3-methyl-1H-pyrazole-5-carboxamido)-3,4-dihydro-5-oxa-1,2a-diazaacenaphthylene-7-carboxamide] | > 39.7 µM | 31.46 | 6.47 |  |  |
| CCn1nc(C)cc1C(=O)Nc1nc2cc(C(N)=O)cc(OCCCNS(=O)(=O)C3CCNCC3)c2n1CCC[C@H]1COc2cc(C(N)=O)cc3nc(NC(=O)c4cc(C)nn4CC)n1c23 [Example 45, (S)-3-(3-(5-carbamoyl-2-(1-ethyl-3-methyl-1H-pyrazole-5-carboxamido)-7-(3-(piperidine-4-sulfonamido)propoxy)-1H-benzo[d]imidazol-1-yl)propyl)-2-(1-ethyl-3-methyl-1H-pyrazole-5-carboxamido)-3,4-dihydro-5-oxa-1,2a-diazaacenaphthylene-7-carboxamide] | > 50 µM | 21.63 | 4.43 |  |  |
| CCn1nc(C)cc1C(=O)Nc1nc2cc(C#N)cc(OCCCNC(=O)CN3CCOCC3)c2n1CCC[C@H]1COc2cc(C(N)=O)cc3nc(NC(=O)c4cc(C)nn4CC)n1c23 [Example 46, (S)-3-(3-(5-cyano-2-(1-ethyl-3-methyl-1H-pyrazole-5-carboxamido)-7-(3-(2-morpholinoacetamido)propoxy)-1H-benzo[d]imidazol-1-yl)propyl)-2-(1-ethyl-3-methyl-1H-pyrazole-5-carboxamido)-3,4-dihydro-5-oxa-1,2a-diazaacenaphthylene-7-carboxamide] | > 6.9 µM | 12.84 | 10.68 |  |  |
| CCn1nc(C)cc1C(=O)Nc1nc2cc(C(N)=O)cc(OCCCNC(=O)CN3CCOCC3)c2n1CCC[C@H]1COc2cc(C#N)cc3nc(NC(=O)c4cc(C)nn4CC)n1c23 [Example 47, (S)-1-(3-(7-cyano-2-(1-ethyl-3-methyl-1H-pyrazole-5-carboxamido)-3,4-dihydro-5-oxa-1,2a-diazaacenaphthylen-3-yl)propyl)-2-(1-ethyl-3-methyl-1H-pyrazole-5-carboxamido)-7-(3-(2-morpholinoacetamido)propoxy)-1H-benzo[d]imidazole-5-carboxamide] |  | 9.16 | 9.80 | inactive |  |
| CCn1nc(C)cc1C(=O)Nc1nc2cc(C#N)cc(OCCCNC(=O)CN3CCOCC3)c2n1CCC[C@H]1COc2cc(C#N)cc3nc(NC(=O)c4cc(C)nn4CC)n1c23 [Example 48, (S)—N-(5-cyano-1-(3-(7-cyano-2-(1-ethyl-3-methyl-1H-pyrazole-5-carboxamido)-3,4-dihydro-5-oxa-1,2a-diazaacenaphthylen-3-yl)propyl)-7-(3-(2-morpholinoacetamido)propoxy)-1H-benzo[d]imidazol-2-yl)-1-ethyl-3-methyl-1H-pyrazole-5-carboxamide] |  | 7.94 | 5.70 | inactive |  |
| CCn1nc(C)c(F)c1C(=O)Nc1nc2cc(C(N)=O)cc(OCCCOC)c2n1CCC[C@H]1COc2cc(C(N)=O)cc3nc(NC(=O)c4c(F)c(C)nn4CC)n1c23 [Example 49, (S)-3-(3-(5-carbamoyl-2-(1-ethyl-4-fluoro-3-methyl-1H-pyrazole-5-carboxamido)-7-(3-methoxypropoxy)-1H-benzo[d]imidazol-1-yl)propyl)-2-(1-ethyl-4-fluoro-3-methyl-1H-pyrazole-5-carboxamido)-3,4-dihydro-5-oxa-1,2a-diazaacenaphthylene-7-carboxamide] | 0.5 µM | 27.58 | 11.17 |  |  |
| CCn1nc(C)cc1C(=O)Nc1nc2cc(C(N)=O)cc(OCCCOC)c2n1CCC[C@H]1COc2cc(C(N)=O)cc3nc(NC(=O)c4c(F)c(C)nn4CC)n1c23 [Example 50, (S)-3-(3-(5-carbamoyl-2-(1-ethyl-3-methyl-1H-pyrazole-5-carboxamido)-7-(3-methoxypropoxy)-1H-benzo[d]imidazol-1-yl)propyl)-2-(1-ethyl-4-fluoro-3-methyl-1H-pyrazole-5-carboxamido)-3,4-dihydro-5-oxa-1,2a-diazaacenaphthylene-7-carboxamide] | 1.6 µM | 32.38 | 8.92 |  |  |
| CCn1nc(C)cc1C(=O)Nc1nc2cc(C(N)=O)cc(OCCCN)c2n1CCC[C@H]1COc2cc(C(N)=O)cc3nc(NC(=O)c4c(F)c(C)nn4CC)n1c23.Cl [Example 51, (S)-3-(3-(7-(3-aminopropoxy)-5-carbamoyl-2-(1-ethyl-3-methyl-1H-pyrazole-5-carboxamido)-1H-benzo[d]imidazol-1-yl)propyl)-2-(1-ethyl-4-fluoro-3-methyl-1H-pyrazole-5-carboxamido)-3,4-dihydro-5-oxa-1,2a-diazaacenaphthylene-7-carboxamide hydrochloride] |  | 11.97 | 9.66 |  | > 50 µM |
| CCn1nc(C)cc1C(=O)Nc1nc2cc(C(N)=O)cc(OCCCNC(=O)CN(C)C)c2n1CCC[C@H]1COc2cc(C(N)=O)cc3nc(NC(=O)c4c(F)c(C)nn4CC)n1c23 [Example 52, (S)-3-(3-(5-carbamoyl-7-(3-(2-(dimethylamino)acetamido)propoxy)-2-(1-ethyl-3-methyl-1H-pyrazole-5-carboxamido)-1H-benzo[d]imidazol-1-yl)propyl)-2-(1-ethyl-4-fluoro-3-methyl-1H-pyrazole-5-carboxamido)-3,4-dihydro-5-oxa-1,2a-diazaacenaphthylene-7-carboxamide] | > 50 µM | 18.32 | 11.79 |  |  |
| CCn1nc(C)cc1C(=O)Nc1nc2cc(C(N)=O)cc(OCCCNC(=O)CN3CCOCC3)c2n1CCC[C@H]1COc2cc(C(N)=O)cc3nc(NC(=O)c4c(F)c(C)nn4CC)n1c23 [Example 53, (S)-3-(3-(5-carbamoyl-2-(1-ethyl-3-methyl-1H-pyrazole-5-carboxamido)-7-(3-(2-morpholinoacetamido)propoxy)-1H-benzo[d]imidazol-1-yl)propyl)-2-(1-ethyl-4-fluoro-3-methyl-1H-pyrazole-5-carboxamido)-3,4-dihydro-5-oxa-1,2a-diazaacenaphthylene-7-carboxamide] | 1.2 µM | 17.39 | 10.85 |  |  |
| CCn1nc(C)cc1C(=O)Nc1nc2cc(C(N)=O)cc(OCCCNC(=O)CN(C)C)c2n1CCC[C@H]1COc2cc(C(N)=O)cc3nc(NC(=O)c4c(Cl)c(C)nn4CC)n1c23 [Example 54, (S)-3-(3-(5-carbamoyl-7-(3-(2-(dimethylamino)acetamido)propoxy)-2-(1-ethyl-3-methyl-1H-pyrazole-5-carboxamido)-1H-benzo[d]imidazol-1-yl)propyl)-2-(4-chloro-1-ethyl-3-methyl-1H-pyrazole-5-carboxamido)-3,4-dihydro-5-oxa-1,2a-diazaacenaphthylene-7-carboxamide] | 5.2 µM | 19.74 | 13.02 |  |  |
